Drawing on patent US20250171438A1 (Agios Pharmaceuticals, Inc., priority 2022, published 2025), this text covers AC50 for 34 compounds.

Read-outs that look alike come from different tables or passages of the source.

For this experiment, the target named is T1, human PAH with the R408W mutation (Homo sapiens, UniProt P00439, R408W).
T1 construct: expressed in transfected cells
T1 sequence (P00439 1-452 R408W): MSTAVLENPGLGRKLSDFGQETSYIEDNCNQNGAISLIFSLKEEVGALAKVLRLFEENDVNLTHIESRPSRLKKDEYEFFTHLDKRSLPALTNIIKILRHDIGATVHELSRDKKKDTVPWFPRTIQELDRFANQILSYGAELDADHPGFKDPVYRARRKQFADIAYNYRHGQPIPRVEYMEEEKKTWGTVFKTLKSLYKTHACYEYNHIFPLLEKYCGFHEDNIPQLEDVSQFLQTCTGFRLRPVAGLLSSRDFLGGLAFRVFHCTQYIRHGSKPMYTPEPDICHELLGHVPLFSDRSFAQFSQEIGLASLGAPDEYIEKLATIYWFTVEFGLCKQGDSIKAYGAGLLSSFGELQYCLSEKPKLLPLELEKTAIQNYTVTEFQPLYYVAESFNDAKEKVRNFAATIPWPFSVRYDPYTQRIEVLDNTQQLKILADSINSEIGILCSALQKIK
The experiment is described as follows: Cell Based Phenylalanine Flux Assay. Set-up: scale not given here. Conditions: A375 cells expressing human R408W PAH, 13C-Tyrosine by LC-MS, average where tested multiple times.

The mark [1] stands for this setting: 24 hrs compound incubation, read-out: AC50.
The mark [2] stands for this setting: 24 hrs with compound, read-out: AC50.

Usually AC50 stands for the concentration giving half of the maximal activity seen. Consider `COCCc1ccc2c(C(=O)N3CCc4[nH]cnc4C3c3nc4ccccc4s3)c(C(F)(F)F)nn2c1` (stereo not shown), for which, where the note is “24 hrs with compound”, the AC50 entry is on record as “E, E”.
`O=C(c1cnn2ccc(Cl)cc12)N1CCc2[nH]cnc2[C@H]1c1nc2ccc(F)cc2s1` [Example 1151]: the AC50 under setting [1] was less than 500 nM.
With `O=C(c1cn[nH]c1C(F)F)N1CCc2[nH]cnc2[C@H]1c1nc2ccccc2s1` [Example 1857], under setting [1], the AC50 is less than 500 nM.
For `O=C(c1ccn[nH]1)N1CCc2[nH]cnc2C1c1nc2ccccc2s1` (stereo not shown), the half-maximal activity concentration (AC50) under setting [2] is 1000 to 5000 nM.
Still for that read-out and setting: next, `Cn1ncc(C(=O)N2CCc3[nH]cnc3[C@@H]2c2nc3c(F)cccc3s2)c1Br` (single isomer, unassigned): greater than 5000 nM.
For `O=C(c1ocnc1-c1ccccn1)N1CCc2[nH]cnc2[C@@H]1c1nc2c(F)cccc2s1` [Example 1524, (R)-(4-(4-fluorobenzo[d]thiazol-2-yl)-6,7-dihydro-1H-imidazo[4,5-c]pyridin-5(4H)-yl)(4-(pyridin-2-yl)oxazol-5-yl)methanone], under setting [1], the AC50 is greater than 5000 nM.
`O=C(Cc1coc(C(F)F)n1)N1CCc2[nH]cnc2[C@H]1c1nc2ccccc2[nH]1` [(S)-1-(4-(1H-benzo[d]imidazol-2-yl)-6,7-dihydro-1H-imidazo[4,5-c]pyridin-5(4H)-yl)-2-(2-(difluoromethyl)oxazol-4-yl)ethanone]: the half-maximal activity concentration (AC50) under setting [2] was in the range of 1000 to 5000 nM.
With `Cn1nccc1-c1nnc(C(=O)N2CCc3[nH]cnc3[C@@H]2c2nc3ccccc3s2)o1` [Example 1946, (R)-(4-(benzo[d]thiazol-2-yl)-6,7-dihydro-1H-imidazo[4,5-c]pyridin-5(4H)-yl)(5-(1-methyl-1H-pyrazol-5-yl)-1,3,4-oxadiazol-2-yl)methanone], under setting [1], the concentration at half-maximal activity (AC50) lay within 1000 to 5000 nM.
In the case of `O=C(CCc1nccs1)N1CCc2[nH]cnc2C1c1nc2cc(F)ccc2s1` (stereo not shown), the half-maximal activity concentration (AC50) under setting [2] was greater than 5000 nM.
Take `O=C(c1nnc(-c2c(F)cccc2F)o1)N1CCc2[nH]cnc2[C@H]1c1nc2ccccc2s1` [Example 1367]: the AC50 under setting [1] was less than 500 nM.
As to `O=C(c1nccs1)N1CCc2[nH]cnc2[C@@H]1c1nc2ccc(Br)cc2[nH]1` [Example 932, (R)-(4-(6-bromo-1H-benzo[d]imidazol-2-yl)-6,7-dihydro-1H-imidazo[4,5-c]pyridin-5(4H)-yl)(thiazol-2-yl)methanone], the AC50 under setting [1] is greater than 5000 nM.
Same read-out and setting: next, `O=C(c1ccnn1-c1ccccn1)N1CCc2[nH]cnc2[C@H]1c1nc2ccccc2s1` [Example 1855]: less than 500 nM.
In the case of `Cc1nc(-c2cnn(C(C)C)c2)oc1C(=O)N1CCc2[nH]cnc2[C@@H]1c1nc2ccccc2s1` [Example 1424, (R)-(4-(benzo[d]thiazol-2-yl)-6,7-dihydro-1H-imidazo[4,5-c]pyridin-5(4H)-yl)(2-(1-isopropyl-1H-pyrazol-4-yl)-4-methyloxazol-5-yl)methanone], under setting [1], the AC50 was 1000 to 5000 nM.
On to `CC1CN(C(=O)c2cnc(N3CCOCC3)o2)C(c2nc3ccccc3s2)c2nc[nH]c21` (stereo not shown), for which the half-maximal activity concentration (AC50) under setting [2] fell in the range of 1000 to 5000 nM.
For `O=C(c1ccnn1C(F)F)N1CCc2[nH]cnc2[C@H]1c1nc2c(F)cccc2s1` [Example 1739], the AC50 under setting [1] is less than 500 nM.
The same measure, in the same setting: next, `O=C(CCC1CC1)N1CCc2nc[nH]c2[C@H]1c1nc2c(F)cccc2s1` [Example 1113, (S)-3-cyclopropyl-1-(4-(4-fluorobenzo[d]thiazol-2-yl)-6,7-dihydro-3H-imidazo[4,5-c]pyridin-5(4H)-yl)propan-1-one]: 1000 to 5000 nM.
Still for that read-out and setting: the figure for `Cn1cc(-c2nc(C3CC3)c(C(=O)N3CCc4[nH]cnc4[C@@H]3c3nc4ccccc4s3)o2)cn1` [Example 1517, (R)-(4-(benzo[d]thiazol-2-yl)-6,7-dihydro-1H-imidazo[4,5-c]pyridin-5(4H)-yl)(4-cyclopropyl-2-(1-methyl-1H-pyrazol-4-yl)oxazol-5-yl)methanone] is 1000 to 5000 nM; for `O=C(c1cnn2cc(-c3ccccc3)ccc12)N1CCc2[nH]cnc2[C@H]1c1nc2ccccc2s1` [Example 1209] it is 1000 to 5000 nM.
Consider `O=C(CCc1nccs1)N1CCc2[nH]cnc2C1c1nc2ccc(Cl)cc2s1` (stereo not shown), for which the AC50 under setting [2] is greater than 5000 nM.
On the same count and under the same terms, next, `O=C(N1CCC(c2ccccc2)C1)N1CCc2[nH]cnc2C1c1nc2ccccc2s1` (stereo not shown): 1000 to 5000 nM.
Take `CC(C)(O)c1nc(Cl)c(C(=O)N2CCc3[nH]cnc3[C@@H]2c2nc3ccccc3s2)o1` [Example 1964, (R)-(4-(benzo[d]thiazol-2-yl)-6,7-dihydro-1H-imidazo[4,5-c]pyridin-5(4H)-yl)(4-chloro-2-(2-hydroxypropan-2-yl)oxazol-5-yl)methanone]: the AC50 under setting [1] fell in the range of 1000 to 5000 nM.
On the same count and under the same terms, next, `Cc1nc(C(C)(C)C)oc1C(=O)N1CCc2[nH]cnc2[C@@H]1c1nc2ccccc2s1` [Example 1432, (R)-(4-(benzo[d]thiazol-2-yl)-6,7-dihydro-1H-imidazo[4,5-c]pyridin-5(4H)-yl)(2-(tert-butyl)-4-methyloxazol-5-yl)methanone]: 1000 to 5000 nM.
`Cn1ccc(C(=O)N2CCc3[nH]cnc3C2c2nc3c(F)cccc3s2)n1` (stereo not shown): the concentration at half-maximal activity (AC50) under setting [2] fell in the range of 1000 to 5000 nM.
The same measure, in the same setting: the figure for `Cc1nc(C(C)(C)O)oc1C(=O)N1CC2(CC2)c2[nH]cnc2C1c1nc2ccccc2s1` (stereo not shown) is 1000 to 5000 nM; for `O=C(c1ccns1)N1CCc2[nH]cnc2[C@H]1c1nc2ccccc2[nH]1` [(S)-(4-(1H-benzo[d]imidazol-2-yl)-1,4,6,7-tetrahydro-5H-imidazo[4,5-c]pyridin-5-yl)(isothiazol-5-yl)methanone] it is 1000 to 5000 nM.
As for `CC(C)(O)c1nc(C(F)F)c(C(=O)N2CCc3[nH]cnc3[C@H]2c2nc3ccccc3s2)o1` [Example 1809], the half-maximal activity concentration (AC50) under setting [1] is less than 500 nM.
In the case of `CC(C)n1ncnc1C(=O)N1CCc2[nH]cnc2[C@H]1c1nc2c(F)cccc2s1` [Example 2039, (S)-(4-(4-fluorobenzo[d]thiazol-2-yl)-6,7-dihydro-1H-imidazo[4,5-c]pyridin-5(4H)-yl)(1-isopropyl-1H-1,2,4-triazol-5-yl)methanone], the concentration at half-maximal activity (AC50) under setting [1] is less than 500 nM.
On the same count and under the same terms, next, `CC(C)(O)c1nc(Br)c(C(=O)N2CCc3[nH]cnc3[C@@H]2c2nc3c(F)cccc3s2)s1` [Example 2094, (R)-(4-bromo-2-(2-hydroxypropan-2-yl)thiazol-5-yl)(4-(4-fluorobenzo[d]thiazol-2-yl)-6,7-dihydro-1H-imidazo[4,5-c]pyridin-5(4H)-yl)methanone]: 1000 to 5000 nM.
On the same count and under the same terms, next, `Cc1nc(-c2cnn(CC(F)(F)F)c2)oc1C(=O)N1CCc2[nH]cnc2[C@H]1c1nc2c(F)cccc2s1` [Example 1506, (S)-(4-(4-fluorobenzo[d]thiazol-2-yl)-6,7-dihydro-1H-imidazo[4,5-c]pyridin-5(4H)-yl)(4-methyl-2-(1-(2,2,2-trifluoroethyl)-1H-pyrazol-4-yl)oxazol-5-yl)methanone]: less than 500 nM.
`Cn1ncc(C(=O)N2CCc3[nH]cnc3C2c2nc3c(F)cccc3s2)c1C#N` (stereo not shown): under setting [2], the concentration at half-maximal activity (AC50) was in the range of 1000 to 5000 nM.
As to `Cc1nnc(CCC(=O)N2CCc3nc[nH]c3C2c2nc3ccc(F)cc3s2)s1` (stereo not shown), the concentration at half-maximal activity (AC50) under setting [2] lay within 1000 to 5000 nM.
`Cc1ccc2c(C(=O)N3CCc4[nH]cnc4[C@H]3c3nc4ccccc4s3)cnn2c1` [Example 1087]: under setting [1], the concentration at half-maximal activity (AC50) fell in the range of 500 to 1000 nM.
In the case of `O=C(c1nnc(-c2ccccn2)o1)N1CCCc2[nH]cnc2C1c1nc2ccccc2s1` (stereo not shown), under setting [2], the concentration at half-maximal activity (AC50) was greater than 5000 nM.
For `CC1(C(=O)N2CCc3[nH]cnc3[C@H]2c2nc3ccccc3s2)CC1(F)F` (single isomer, unassigned) [Example 1292], under setting [1], the AC50 fell in the range of 1000 to 5000 nM.
